This is an account of results in article PMC4832822, “Investigating the Influence of (Deoxy)fluorination on the Lipophilicity of Non‐UV‐Active Fluorinated Alkanols and Carbohydrates by a New log P Determination Method” (Angewandte Chemie (International Ed. in English), 2015).

By logP is commonly meant the decadic logarithm of the partition coefficient of the neutral form, usually between octanol and water. High values mean a more lipophilic compound, low ones a more hydrophilic compound.

For data set [1] the following is noted: cited from earlier work.
The nature of data set [2]: milogP calculated using Molinspiration Cheminformatics. The following applies: Table SI14.
Data set [3] can be described thus: log P determination by 19F NMR shake-flask method with internal fluorinated reference (octanol/water). The following applies: for ΔlogP (exp. logP vs logP lit): Table SI12.
Where [4] appears, read: method and temperature not provided, ref U.S. National Library of Medicine online database (chemidplus).
Where [5] appears, read: octanol/water, error (mean logP to three decimals), reference TFE (+0.36).
Setting [6] is: octanol/water, logP, 19F NMR, 25 °C, average value.
The mark [7] stands for this setting: octanol/water, logP, single experiment, reference TFE (+0.36).
The mark [8] stands for this setting: shake-flask, 1H or 19F NMR, temperature not reported, ref N. Muller, J. Pharm. Sci. 1986.
[9] abbreviates: octanol/water, Average logP, 25 °C, reference TFE (+0.36).
Where [10] appears, read: ref chemidplus database and N. Muller 1986.
[11] abbreviates: single experiment, reference TFE (+0.36).

Values joined by “and” are separate entries in the source; they are usually repeats but may differ in a detail not shown here. Equal values may be shown once. Read-outs that look alike come from different tables or passages of the source.

On to `CCCC(C)O` (stereo not shown) [G, 2-PentOH, reference compound], for which the “logP (lit)” value in data set [1] (setting [4]) is on record as “+1.19”.
As for `CC(C)(C)[C@H]1CC[C@H](O)CC1` [K, reference compound], the “logP (lit)” value in data set [1] (setting [4]) was “+3.09”.
With `CC(C)(C)[C@H]1CC[C@@H](O)CC1` [L, reference compound], the “logP (lit)” value in data set [1] (setting [4]) is listed as “+3.02”.
In the case of `Oc1ccccc1F` [SI4, o-fluorophenol], the “ΔlogP (milogP vs logP exp)” value in data set [2] is given as “+0.13”. The “logP (lit)” value in data set [1] (method and temperature not provided, ref C. Hansch, A. Leo, Substituent constants, Wiley 1979) is “+1.64”; in data set [1] (ref chemidplus database, Hansch, Leo 1979 and Fujita, Iwasa, Hansch 1964 (shake-flask, spectrophotometer, 25 ± 5 °C)), “+1.71”. Moreover, the logP in data set [3] (setting [5]), in data set [3] (setting [6]) and in data set [3] (setting [7]) was 1.7 throughout.
For `CC(O)C(F)(F)F` (stereo not shown) [compound 6], in data set [2], the “ΔlogP (milogP vs logP exp)” value is listed as “+0.27”. In addition, the “logP (lit)” value was “+0.71” in data set [1] (ref chemidplus database, Dillingham et al. 1973 and Hansch, Leo 1979); “+0.70” in data set [1] (setting [8]). Also, the logP in data set [3] (setting [9]) amounted to 0.71; in data set [3] (setting [5]) it was 0.715; in data set [3] (setting [6]), 0.7; in data set [3] (setting [7]), 0.712.
`OC(C(F)(F)F)C(F)(F)F` [compound 7]: the “logP (lit)” value in data set [1] (setting [4]) is recorded as “+1.66”. In addition, the “ΔlogP (exp. logP vs logP lit)” value in data set [3] is on record as “+0.03”. For the same molecule, the log partition coefficient (logP) in data set [3] (setting [9]), in data set [3] (setting [5]) and in data set [3] (setting [7]) was 1.69 each time.
On to `OCCC(F)(F)F` [compound 12], for which, in data set [2], the “ΔlogP (milogP vs logP exp)” value is reported as “+0.47”. The “logP (lit)” value in data set [1] (setting [10]) is listed as “+0.39”. Further, the “ΔlogP (exp. logP vs logP lit)” value in data set [3] is listed as “+0.02”. Besides, the figures for the logP in data set [3] (setting [9]), in data set [3] (setting [5]) and in data set [3] (setting [7]) were 0.41, 0.414 and 0.413, respectively.
`OCC(F)(F)C(F)(F)F` [compound 13, CF3CF2CH2OH]: the “ΔlogP (milogP vs logP exp)” value in data set [2] is given as “+0.05”. Also, the “logP (lit)” value in data set [1] (ref chemidplus database, Hansch, Leo 1979 and Leo, Elkins, Chem. Rev. 1971) is 1.23. Further, the “Average logP” value in data set [3] (25 °C, reference TFE (+0.36)) is recorded as “+1.20”. In data set [3], the “ΔlogP (exp. logP vs logP lit)” value was -0.03. Also, the logP in data set [3] (setting [9]) was 1.2; in data set [3] (octanol/water, average logP, mA 2.0 mg, mREF 0.8 mg, reference CF3CH2OH) it was 1.2; in data set [3] (octanol/water, average logP, mA 10.0 mg, mREF 4.0 mg), 1.2; in data set [3] (octanol/water, average logP, mA 70.0 mg, mREF 30.0/70.0 mg), 1.18; in data set [3] (octanol/water, average logP, mA 120.0 mg, mREF 60.0 mg), 1.18; in data set [3] (setting [5]) it was 1.2. Also, the logP in data set [3] (setting [6]) was 1.2; in data set [3] (octanol/water, logP, single experiment, mA 2.0 mg, mREF 0.8 mg, reference CF3CH2OH), 1.2; in data set [3] (octanol/water, logP, single experiment, mA 10.0 mg, mREF 4.0 mg) it was 1.2; in data set [3] (octanol/water, logP, single experiment, mA 70.0 mg, mREF 30.0/70.0 mg), 1.18; in data set [3] (octanol/water, logP, single experiment, mA 120.0 mg, mREF 60.0 mg), 1.17; in data set [3] (setting [7]), 1.2. Moreover, the logP is 1.200 in data set [3] (single experiment, mA 2.0 mg, mREF 0.8 mg, reference CF3CH2OH); 1.200 and 1.195 in data set [3] (single experiment, mA 10.0 mg, mREF 4.0 mg); 1.179 in data set [3] (single experiment, mA 70.0 mg, mREF 30.0/70.0 mg); 1.178 and 1.174 in data set [3] (single experiment, mA 120.0 mg, mREF 60.0 mg); “+1.200 and +1.199” in data set [3] (setting [11]). Moreover, the “mean logP” value in data set [3] (reference TFE (+0.36)) was 1.200.
As for `OCCCC(F)(F)F` [compound 23, 4,4,4-trifluoro-1-butanol], in data set [2], the “ΔlogP (milogP vs logP exp)” value is listed as “+0.24”. Further, the “logP (lit)” value in data set [1] (setting [10]) is listed as “+0.90”. The “Average logP” value in data set [3] (25 °C, reference TFE (+0.36)) is listed as “+0.91”. Besides, the “ΔlogP (exp. logP vs logP lit)” value in data set [3] was “+0.01”. The logP result is “+0.91” in data set [3] (octanol/water, 19F NMR, 25 °C, average value); 0.91 in data set [3] (setting [9]); 0.91 in data set [3] (setting [5]); 0.91 in data set [3] (setting [6]); 0.918 in data set [3] (setting [7]).
As to `OCCCCC(F)(F)F` [compound 35], the “ΔlogP (milogP vs logP exp)” value in data set [2] is reported as “+0.43”. In addition, the “logP (lit)” value in data set [1] (setting [8]) is reported as “+1.15”. Besides, in data set [3] (25 °C, reference TFE (+0.36)), the “Average logP” value was “+1.22”. For the same molecule, the “ΔlogP (exp. logP vs logP lit)” value in data set [3] is reported as “+0.07”. For the same molecule, the logP in data set [3] (setting [9]), in data set [3] (setting [5]), in data set [3] (setting [6]) and in data set [3] (setting [7]) was 1.22 in each case.
Regarding `OC[C@H]1OC(O)C(F)(F)C(F)(F)[C@H]1O` (stereo partly drawn) [compound 53, 2,3-Dideoxy-2,2,3,3-tetrafluoro-D-threo-hexopyranose], the “ΔlogP (milogP vs logP exp)” value in data set [2] is reported as “+0.07”. Besides, the logP is -0.58 in data set [3] (setting [9]); -0.576 in data set [3] (setting [5]); -0.574 and -0.573 and -0.583 in data set [3] (setting [11]).
